The nature of one data set: physchem. The note with it: water.
For a further data set, the target named is T1, acid ceramidase (Homo sapiens, UniProt Q13510).
T1 construct: Cell lysates overexpressing acid ceramidase were used as the enzyme source; expressed in transfected cells
T1 sequence (Q13510 22-395): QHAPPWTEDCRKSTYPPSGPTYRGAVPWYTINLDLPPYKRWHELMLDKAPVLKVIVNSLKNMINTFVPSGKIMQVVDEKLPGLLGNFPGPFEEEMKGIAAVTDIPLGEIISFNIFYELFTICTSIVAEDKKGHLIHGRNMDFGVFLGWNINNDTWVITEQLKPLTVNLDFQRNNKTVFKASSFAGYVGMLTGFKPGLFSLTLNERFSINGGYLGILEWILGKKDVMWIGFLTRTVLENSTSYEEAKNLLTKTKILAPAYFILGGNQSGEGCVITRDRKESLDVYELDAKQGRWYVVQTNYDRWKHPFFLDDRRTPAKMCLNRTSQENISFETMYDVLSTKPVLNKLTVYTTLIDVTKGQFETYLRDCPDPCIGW
As to the kind of experiment: Acid ceramidase inhibition, biochemical fluorescent assay with cell lysates overexpressing acid ceramidase, substrate Rbm14-12. Conditions: substrate Rbm14-12 6.3 μM. The gist of the method: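 IC50 derived by four-parameter fitting of fluorescence (ex360 nm, em446 nm) produced after 1 hr in methanol/NaIO4/glycine stop buffer, pH 10.6. Reaction: 6.3 μM Rbm14-12, 1 hr RT, following 1 hr RT compound preincubation with 10 μg overexpressing-cell lysate protein in pH 4.5 NaAC/NaCl buffer.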

Data set [1] in a line: Compound solubility in water.
Setting [2] is: pH 4.5, 1 hr preincubation at RT.

Each structure is given as a SMILES string. pIC50: −log10 of the molar value. ≈ marks a conversion by molar mass, not a printed value.

What is called solubility is the dissolved amount per volume that the medium holds. A word on the pIC50: it is −log10 of the IC50, conventionally taken in molar units. A higher pIC50 goes with a small IC50.

As to `CC(C)CCNC(=O)n1cnc2c(N3CC3C(F)(F)F)cccc21` (centres unmarked) [Example 164, N-iso-Pentyl-4-(2-(trifluoromethyl)-aziridin-1-yl)-1H-benzo[d]imidazole-1-carboxamide], the solubility in “physchem” was determined as 2 µg/mL (≈ 5.88 µM). This molecule showed a negative logarithm of the IC50 (pIC50) on acid ceramidase (pH 4.5) above 6.70.

As to `O=C(NCCCc1ccccc1)n1cnc2c(N3CC3C(F)(F)F)cccc21` (centres unmarked) [Example 242, N-(3-phenylpropyl)-4-(2-(trifluoromethyl)aziridin-1-yl)-1H-benzo[d]imidazole-1-carboxamide], the solubility in the data set “physchem” was 1 µg/mL (≈ 2.57 µM). In addition, the pIC50 on acid ceramidase (pH 4.5) was above 6.70.

In the data set “physchem”, `O=C(NCCCc1ccccc1)n1cnc2c(N3CC3F)cccc21` (centres unmarked) [Example 274, 4-(2-Fluoroaziridin-1-yl)-N-(3-phenylpropyl)-1H-benzo[d]imidazole-1-carboxamide] registered a solubility of 17 µg/mL (≈ 50.2 µM). The molecule also showed a pIC50 at acid ceramidase (pH 4.5) above 6.70.

`CC(C)C#CCNC(=O)n1cnc2c(N3CC3C(F)(F)F)cccc21` (centres unmarked) [Example 308, N-(4-Methylpent-2-yn-1-yl)-4-(2-(trifluoromethyl)-aziridin-1-yl)-1H-benzo[d]imidazole-1-carboxamide] registered a solubility in “physchem” of 1 µg/mL (≈ 2.85 µM). Further, on acid ceramidase (pH 4.5), the pIC50 was above 6.70.

Molecule `CN1CCN(C2CN(c3cccc4c3ncn4C(=O)NCC(C)(C)Oc3ccccc3)C2)CC1` [Example 344, N-(2-Methyl-2-phenoxypropyl)-4-(3-(4-methylpiperazin-1-yl)azetidin-1-yl)-1H-benzo[d]imidazole-1-carboxamide] returned a solubility in data set [1] of 29 µg/mL (≈ 62.7 µM). Further, the negative-log IC50 (pIC50) against acid ceramidase (setting [2]) is above 6.70.

In the case of `CN1CCN(c2cccc3c2ncn3C(=O)NCC2Oc3ccccc3O2)CC1` [Example 345, N-(Benzo[d][1,3]dioxol-2-ylmethyl)-4-(4-methylpiperazin-1-yl)-1H-benzo[d]imidazole-1-carboxamide], the solubility in data set [1] worked out at 40 µg/mL (≈ 102 µM). In addition, the pIC50 against acid ceramidase (setting [2]) is above 6.70.

On to `CN1CCN(c2cccc3c2ncn3C(=O)NCc2ccc3c(c2)OCO3)CC1` [Example 346, N-(Benzo[d][1,3]dioxol-5-ylmethyl)-4-(4-methylpiperazin-1-yl)-1H-benzo[d]imidazole-1-carboxamide], for which, in data set [1], the concentration in solution (solubility) came to 11 µg/mL (≈ 28 µM). The molecule further had a pIC50 at acid ceramidase (setting [2]) above 6.70.

`CN1CCN(c2cccc3c2ncn3C(=O)NCc2ccn3cccc3c2)CC1` [Example 347, N-(Indolizin-7-ylmethyl)-4-(4-methylpiperazin-1-yl)-1H-benzo[d]imidazole-1-carboxamide]: the solubility in data set [1] turned out to be 25 µg/mL (≈ 64.4 µM). In addition, the pIC50 against acid ceramidase (setting [2]) is above 6.70.

With `CN1CCN(CCOc2nc3ccccc3n2C(=O)NCC#Cc2ccccc2)CC1` [Example 348, 2-(2-(4-Methylpiperazin-1-yl)ethoxy)-N-(3-phenylprop-2-yn-1-yl)-1H-benzo[d]imidazole-1-carboxamide], the solubility in data set [1] is 8 µg/mL (≈ 19.2 µM). Further, the pIC50 on acid ceramidase (setting [2]) was above 6.70.

Molecule `CN1CCN(C2CN(c3cccc4c3ncn4C(=O)NCCc3ccccc3)C2)CC1` [Example 349, 4-(3-(4-Methylpiperazin-1-yl)azetidin-1-yl)-N-phenethyl-1H-benzo[d]imidazole-1-carboxamide] had a solubility in data set [1] of 37 µg/mL (≈ 88.4 µM). Further, the pIC50 on acid ceramidase (setting [2]) is 6.00 to 6.70.

Take `CN1CCC2(CC1)CN(c1cccc3c1ncn3C(=O)NCCOc1ccccc1)C2` [Example 350, 4-(7-Methyl-2,7-diazaspiro[3.5]nonan-2-yl)-N-(2-phenoxyethyl)-1H-benzo[d]imidazole-1-carboxamide]: the solubility in data set [1] stood at 35 µg/mL (≈ 83.4 µM). Besides, the pIC50 against acid ceramidase (setting [2]) was above 6.70.

For the molecule `CN1CC2(CCN(c3cccc4c3ncn4C(=O)NCCOc3ccccc3)CC2)C1` [Example 351, 4-(2-Methyl-2,7-diazaspiro[3.5]nonan-7-yl)-N-(2-phenoxyethyl)-1H-benzo[d]imidazole-1-carboxamide], the solubility in data set [1] amounted to 33 µg/mL (≈ 78.7 µM). The molecule also had a pIC50 against acid ceramidase (setting [2]) above 6.70.

In the case of `CN1CCN(c2cccc3c2ncn3C(=O)NCCC#Cc2ccccc2)CC1` [Example 352, 4-(4-Methylpiperazin-1-yl)-N-(4-phenylbut-3-yn-1-yl)-1H-benzo[d]imidazole-1-carboxamide], in data set [1], the solubility came out at 2 µg/mL (≈ 5.16 µM). The molecule also gave a pIC50 at acid ceramidase (setting [2]) above 6.70.

Turning to `CN(C)C1CN(c2cccc3c2ncn3C(=O)NCCOc2ccccc2)C1` [Example 353, 4-(3-(Dimethylamino)azetidin-1-yl)-N-(2-phenoxyethyl)-1H-benzo[d]imidazole-1-carboxamide], the solubility in data set [1] came to 16 µg/mL (≈ 42.2 µM). Further, the pIC50 against acid ceramidase (setting [2]) was above 6.70.

Take `CNC1CN(c2cccc3c2ncn3C(=O)NCCOc2ccccc2)C1` [Example 354, 4-(3-(Methylamino)azetidin-1-yl)-N-(2-phenoxyethyl)-1H-benzo[d]imidazole-1-carboxamide]: the concentration in solution in data set [1] (solubility) was 19 µg/mL (≈ 52 µM). Also, the pIC50 at acid ceramidase (setting [2]) was below 6.00.

In turn, `CC(C)C#CCNC(=O)n1cnc2c(N3CC(N(C)C)C3)cccc21` [Example 355, 4-(3-(Dimethylamino)azetidin-1-yl)-N-(4-methylpent-2-yn-1-yl)-1H-benzo[d]imidazole-1-carboxamide] displayed a solubility in data set [1] of 22 µg/mL (≈ 64.8 µM). Besides, the pIC50 against acid ceramidase (setting [2]) was 6.00 to 6.70.

On to `CN1CC2CC1CN2C1CN(c2cccc3c2ncn3C(=O)NCCOc2ccccc2)C1` (centres unmarked) [Example 356, 4-(3-(5-Methyl-2,5-diazabicyclo[2.2.1]heptan-2-yl)azetidin-1-yl)-N-(2-phenoxyethyl)-1H-benzo[d]imidazole-1-carboxamide], for which, in data set [1], the concentration in solution (solubility) was 46 µg/mL (≈ 103 µM). At acid ceramidase (setting [2]), the pIC50 is above 6.70.

In data set [1], `O=C(NCCc1ccccc1)n1c(OCCN2CCOCC2)nc2ccccc21` [Example 357, 2-(2-Morpholinoethoxy)-N-phenethyl-1H-benzo[d]imidazole-1-carboxamide] returned a solubility of 6 µg/mL (≈ 15.2 µM). Besides, the pIC50 against acid ceramidase (setting [2]) is 6.00 to 6.70.

`CC(C)C#CCNC(=O)n1cnc2c(N3CC4(CN(C)C4)C3)cccc21` [Example 358, 4-(6-Methyl-2,6-diazaspiro[3.3]heptan-2-yl)-N-(4-methylpent-2-yn-1-yl)-1H-benzo[d]imidazole-1-carboxamide] had a solubility in data set [1] of 33 µg/mL (≈ 93.9 µM). This molecule also gave a pIC50 at acid ceramidase (setting [2]) of 6.00 to 6.70.

`CC(C)C#CCNC(=O)n1cnc2c(N3CC4(CCN4C)C3)cccc21` [Example 359, 4-(1-Methyl-1,6-diazaspiro[3.3]heptan-6-yl)-N-(4-methylpent-2-yn-1-yl)-1H-benzo[d]imidazole-1-carboxamide] had a solubility in data set [1] of 23 µg/mL (≈ 65.4 µM). This molecule also showed a pIC50 against acid ceramidase (setting [2]) of 6.00 to 6.70.

The molecule `CN1CCN(C2CN(c3cccc4c3ncn4C(=O)NCC#CC(C)(C)C)C2)CC1` [Example 360, N-(4,4-Dimethylpent-2-yn-1-yl)-4-(3-(4-methylpiperazin-1-yl)azetidin-1-yl)-1H benzo[d]imidazole-1-carboxamide] returned a solubility in data set [1] of 27 µg/mL (≈ 66.1 µM). The pIC50 on acid ceramidase (setting [2]) was above 6.70.

In data set [1], `CN1CC(N2CCN(c3cccc4c3ncn4C(=O)NCCC#Cc3ccccc3)CC2)C1` [Example 361] registered a solubility of 24 µg/mL (≈ 54.2 µM). At acid ceramidase (setting [2]), the pIC50 is above 6.70.

Molecule `CN1CCN(C2CN(c3cccc4c3ncn4C(=O)NCCC#Cc3ccccc3)C2)CC1` [Example 362, 4-(3-(4-Methylpiperazin-1-yl)azetidin-1-yl)-N-(4-phenylbut-3-ynyl)-1H-benzo[d]imidazole-1-carboxamide] returned a solubility in data set [1] of 23 µg/mL (≈ 52 µM). Moreover, at acid ceramidase (setting [2]), the pIC50 was above 6.70.

The molecule `CN1CCN(CCOc2nc3ccccc3n2C(=O)NCCC#Cc2ccccc2)CC1` [Example 363, 2-(2-(4-Methylpiperazin-1-yl)ethoxy)-N-(4-phenylbut-3-yn-1-yl)-1H-benzo[d]imidazole-1-carboxamide] displayed a solubility in data set [1] of 28 µg/mL (≈ 64.9 µM). In addition, on acid ceramidase (setting [2]), the pIC50 was above 6.70.

`CN(C)C1CN(c2cccc3c2ncn3C(=O)NCCC#Cc2ccccc2)C1` [Example 364, 4-(3-(Dimethylamino)azetidin-1-yl)-N-(4-phenylbut-3-ynyl)-1H-benzo[d]imidazole-1-carboxamide] had a solubility in data set [1] of 17 µg/mL (≈ 43.9 µM). At acid ceramidase (setting [2]), the pIC50 is above 6.70.

As to `CN1CCN(c2cccc3c2ncn3C(=O)NCc2ccc3c(c2)OCCO3)CC1` [Example 365, N-((2,3-Dihydrobenzo[b][1,4]dioxin-6-yl)methyl)-4-(4-methylpiperazin-1-yl)-1H-benzo[d]imidazole-1-carboxamide], the solubility in data set [1] was found to be 11 µg/mL (≈ 27 µM). Besides, the pIC50 against acid ceramidase (setting [2]) is above 6.70.

Consider `CN1CCC2(CC1)CN(c1cccc3c1ncn3C(=O)NCCC#Cc1ccccc1)C2` [Example 366, 4-(7-Methyl-2,7-diazaspiro[3.5]nonan-2-yl)-N-(4-phenylbut-3-yn-1-yl)-1H-benzo[d]imidazole-1-carboxamide], for which, in data set [1], the solubility worked out at 21 µg/mL (≈ 49.1 µM). This molecule gave a pIC50 on acid ceramidase (setting [2]) above 6.70.

`CN1CC2(CCN(c3cccc4c3ncn4C(=O)NCCC#Cc3ccccc3)CC2)C1` [Example 367, 4-(2-Methyl-2,7-diazaspiro[3.5]nonan-7-yl)-N-(4-phenylbut-3-yn-1-yl)-1H-benzo[d]imidazole-1-carboxamide] came in with a solubility in data set [1] of 27 µg/mL (≈ 63.2 µM). This molecule showed a pIC50 against acid ceramidase (setting [2]) above 6.70.
